Measurements as given in US20220274927A1, “MEMBRANE-ACTIVE ANTI-BACTERIAL COMPOUNDS AND USES THEREOF” (Trustees of Dartmouth College, priority 2019, published 2022).
Converted amounts (≈) assume the structure as drawn.

Tests used:
[1] = tested on: methicillin-resistant S. aureus (FPR3757); experiment: MIC against clinical MRSA strain FPR3757 in Mueller-Hinton broth (CLSI); format: cell-based, Staphylococcus aureus; details: Staphylococcus aureus, MRSA, MRSA clinical strain FPR3757, Mueller-Hinton broth, CLSI guidelines, complete inhibition of observable growth; read-out: MIC
Description: (§1) The first set of compounds evaluated were analogs at the C-7 and C-8 positions of the initial quinolone hit DNAC-2 since the other HTS hits identified (data not shown) were substituted at these positions (Table 1). Applicants first explored modification at the C-7 position with a small series of electron-donating and withdrawing substituents. […] However, analogs containing electron donating groups at C-7 including ethyl 7, benzyloxy 8, methoxy 9 and methylthio 10 are weakly active displaying MICs of 320-640 μg/mL indicating electron-donating substituents at C-7 are poorly tolerated. […] The C-8 position was evaluated with trifluoromethyl 4 and trifluoromethoxy 5 containing the optimal C-7 substituents. Both 4 and 5 are equipotent to the corresponding C-7 analogs 2 and 3 indicating some flexibility of the quinolone scaffold.

S. aureus MW2 = experiment: Antimicrobial susceptibility MIC, S. aureus MW2; format: cell-based; details: Staphylococcus aureus; S. aureus strain MW2; read-out: MIC
Description: as §1
(§2) The compounds maintain activity against Staphylococcus epidermidis; however, 31, 111 and 123 all lose considerable potency against Enterococcus faecalis and Enterococcus faecium, which contribute heavily, along with MRSA, to healthcare-associated infections.

S. aureus COL = experiment: Antimicrobial susceptibility MIC, S. aureus COL; format: cell-based; details: Staphylococcus aureus; S. aureus strain COL
Description: as §1, §2

S. aureus N325 = experiment: Antimicrobial susceptibility MIC, S. aureus N325; format: cell-based; details: Staphylococcus aureus; S. aureus strain N325
Description: as §1, §2

S. aureus NRS71 = experiment: Antimicrobial susceptibility MIC, S. aureus NRS71; format: cell-based; details: Staphylococcus aureus; S. aureus strain NRS71
Description: as §1, §2

S. aureus NIH04008 = experiment: Antimicrobial susceptibility MIC, S. aureus NIH04008; format: cell-based; details: Staphylococcus aureus; S. aureus strain NIH04008; read-out: MIC
Description: as §1, §2

S. epidermidis NIH04003 = experiment: Antimicrobial susceptibility MIC, S. epidermidis NIH04003; format: cell-based; details: Staphylococcus epidermidis; S. epidermidis strain NIH04003
Description: as §1, §2

E. faecalis DHMC #1 = experiment: Antimicrobial susceptibility MIC, E. faecalis DHMC #1; format: cell-based; details: Enterococcus faecalis; E. faecalis strain DHMC #1
Description: as §1, §2

E. faecium DHMC #1 = experiment: Antimicrobial susceptibility MIC, E. faecium DHMC #1; format: cell-based; details: Enterococcus faecium; E. faecium strain DHMC #1
Description: as §1, §2

[2] = tested on: clinical methicillin-resistant Staphylococcus aureus (MRSA) isolates; experiment: MIC against panel of MRSA / staphylococcal strains (text summaries); format: cell-based; details: six S. aureus strains of Table 9, read-out: MIC towards all six S. aureus strains
Description: as §1, §2

[3] = tested on: erythrocyte membranes (versus S. aureus membranes); experiment: in vitro; format: cell-based, sheep; details: sheep; read-out: selectivity for S. aureus membranes over erythrocyte membranes
Procedure: FIG. 8 illustrates percent hemolysis analysis of sheep erythrocytes. Concentration-dependent hemolysis was measured by monitoring the optical density (OD)540 of PBS-washed sheep erythrocytes. Complete hemolysis (100%) was confirmed by treatment of erythrocytes with Triton X-100. Data points represent the mean±SD of triplicate experiments.
The macromolecular synthesis assay, TEM, and FM experiments were all consistent with membrane disruption. […] The high membrane selectivity of the 5-aminoquinolin-4-ones in this assay is impressive and is in accordance with the observed therapeutic index (CC50/MIC).

Solubility = format: physicochemical
MRSA = details: HTS hit, previously reported by Applicants; cited from earlier work
[4] = tested on: membrane of gram-positive bacteria; details: previously reported; cited from earlier work
eukaryotic membranes = details: cited from earlier work

| MIC [1] [µg/mL] | MIC (S. aureus MW2) [µg/mL] | MIC (S. aureus COL) [µg/mL] | MIC (S. aureus N325) [µg/mL] | MIC (S. aureus NRS71) [µg/mL] | MIC (S. aureus NIH04008) [µg/mL] | MIC (S. epidermidis NIH04003) [µg/mL] | MIC (E. faecalis DHMC #1) [µg/mL] | MIC (E. faecium DHMC #1) [µg/mL] | MIC [2] [µg/mL] | solubility (Solubility) | SMILES | selectivity ratio [3] | MIC against MRSA (MRSA) [µg/mL] | membrane effect on gram-positive bacteria [4] | toxicity towards eukaryotic membranes (eukaryotic membranes) |
| --- | --- | --- | --- | --- | --- | --- | --- | --- | --- | --- | --- | --- | --- | --- | --- |
| < 0.06 | < 0.06 | < 0.06 | < 0.06 | < 0.06 | < 0.06 | < 0.06 | 2 (≈ 4.53 µM) | 2 (≈ 4.53 µM) | < 0.06 | low solubility | O=c1cc(C(F)(F)F)[nH]c2cc(C(F)(F)F)cc(Nc3ccc(C(F)(F)F)cn3)c12 [Compound 111] | > 500 | – | – | – |
| – | – | – | – | – | – | – | – | – | – | – | O=c1cc(C(F)(F)F)[nH]c2c(OC(F)(F)F)cccc12 [DNAC-2] | – | 8 (≈ 26.9 µM) | partial membrane depolarization | no toxicity towards eukaryotic membranes |
